Experimental data reported in patent US20180072997A1, “INHIBITORS OF HUMAN IMMUNODEFICIENCY VIRUS REPLICATION” (ViiV HEATHCARE UK (NO.5) LIMITED, priority 2015, published 2018).

Legend:
[1] = Compound cytotoxicity, XTT-based colorimetric assay; type: cell-based; conditions: human, uninfected MT2 cells, day 4, XTT
Summary of the method: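 Run under the antiviral-assay protocol but without virus. Viability was read on day 4 and CC50 values were derived from the readout.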

[2] = system: recombinant NL4-3 virus (Renilla luciferase in nef) in MT-2 cells; experiment: whole plant or invertebrate; type: cell-based, HIV; conditions: Renilla, NL43, MT-2 cells infected for 4-5 days with recombinant NL4-3 Renilla luciferase virus; luciferase activity
Summary of the method: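 MT-2 cells infected for 4-5 days with NL4-3 reporter virus (Renilla luciferase replacing part of nef, produced by transfection of 293T cells) in the presence of serial compound dilutions. Antiviral activity quantified by luciferase activity read with a live-cell substrate.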

SMILES	CC50 at 4 days [1]	EC50 [2]
Cc1ncc(N(C)C(=O)[C@H](Cc2cc(F)cc(F)c2)NC(=O)NS(=O)(=O)N[C@@H](Cc2cc(F)cc(F)c2)C(=O)N(C)c2cnc(C)nc2)cn1 [Example 207]	≥ 25000 nM	25000 nM
CN(C(=O)[C@H](Cc1cc(F)cc(F)c1)NC(=O)NS(=O)(=O)N[C@@H](Cc1cc(F)cc(F)c1)C(=O)N(C)c1ccc2sc(=O)n(C)c2c1)c1ccc2sc(=O)n(C)c2c1 [Example 237]	71900 nM	270 nM
COc1ccc(N(C)C(=O)[C@H](Cc2ccccc2)NC(=O)c2cncc(C(=O)N[C@@H](Cc3ccccc3)C(=O)N(C)c3ccc(OC)cc3)n2)cc1 [Example 111]	≥ 100000 nM	960 nM
COc1ccc(N(C)C(=O)[C@H](Cc2ccccc2)NC(=O)NS(=O)(=O)N[C@@H](Cc2cc(F)cc(F)c2)C(=O)N(C)c2ccc(OC)cc2)cc1 [Example 44]	67000 nM	20 nM
COc1ccc(N(C)C(=O)[C@H](Cc2ccccc2)NC(=O)CC(=O)N[C@@H](Cc2ccccc2)C(=O)N(C)c2ccc(OC)cc2)cc1 [Example 3]	70900 nM	1940 nM
CN(C(=O)[C@H](Cc1ccccc1)NC(=O)c1ccnc(N[C@@H](Cc2ccccc2)C(=O)N(C)c2ccc3scnc3c2)n1)c1ccc2scnc2c1 [Example 154]	≥ 100000 nM	1860 nM
COc1ccc(N(C)C(=O)[C@H](Cc2ccccc2)NC(=O)Cn2c(=O)n(CC(=O)N[C@@H](Cc3ccccc3)C(=O)N(C)c3ccc(OC)cc3)c3cc(OC)ccc32)cc1 [Example 83]	6200 nM	90 nM
CN(C(=O)[C@H](Cc1cc(F)cc(F)c1)NC(=O)NS(=O)(=O)N[C@@H](Cc1cc(F)cc(F)c1)C(=O)N(C)c1ccc(C2CC2)nc1)c1ccc(C2CC2)nc1 [Example 181]	85800 nM	20 nM
COc1ccc(N(C)C(=O)[C@H](Cc2cc(F)cc(F)c2)NC(=O)CN2c3ccccc3N(CC(=O)N[C@@H](Cc3cc(F)cc(F)c3)C(=O)N(C)c3ccc(OC)cc3)S2(=O)=O)cc1 [Example 34]	≥ 100000 nM	10 nM
CCN(C(=O)[C@H](Cc1cc(F)cc(F)c1)NC(=O)CN1c2ccccc2N(CC(=O)N[C@@H](Cc2cc(F)cc(F)c2)C(=O)N(CC)c2ccc(NC(=O)OC)cc2)S1(=O)=O)c1ccc(NC(=O)OC)cc1 [Example 148]	≥ 100000 nM	720 nM
CN(C(=O)[C@H](Cc1cc(F)cc(F)c1)NC(=O)NS(=O)(=O)N[C@@H](Cc1cc(F)cc(F)c1)C(=O)N(C)c1ccc2c(c1)OCCO2)c1ccc2c(c1)OCCO2 [Example 162]	43900 nM	70 nM
COc1ccc(N(C)C(=O)[C@H](Cc2cc(F)cc(F)c2)NC(=O)CN2c3ccccc3N(CC(=O)N[C@@H](Cc3cc(F)cc(F)c3)C(=O)N(C)c3ccc(OC)nc3)S2(=O)=O)cn1 [Example 197]	9300 nM	10 nM
COc1ccc(N(C)C(=O)[C@H](Cc2ccccc2)NC(=O)Cn2c(=O)n(CC(=O)N[C@@H](Cc3ccccc3)C(=O)N(C)c3ccc(OC)cc3)c3cc([N+](=O)[O-])ccc32)cc1 [Example 87]	11100 nM	90 nM
COc1ccc(N(C)C(=O)[C@H](Cc2ccccc2)NC(=O)CN(CCO)CC(=O)N[C@@H](Cc2ccccc2)C(=O)N(C)c2ccc(OC)cc2)cc1 [Example 29]	31800 nM	2490 nM
COc1ccc(N(C)C(=O)[C@H](Cc2ccccc2)NS(=O)(=O)CCCS(=O)(=O)N[C@@H](Cc2ccccc2)C(=O)N(C)c2ccc(OC)cc2)cc1 [Example 28]	30000 nM	1400 nM
C=CCN(C(=O)[C@H](Cc1cc(F)cc(F)c1)NC(=O)c1ccccc1C(=O)N[C@@H](Cc1cc(F)cc(F)c1)C(=O)N(CC=C)c1ccc(OC)cc1)c1ccc(OC)cc1 [Example 191]	≥ 100000 nM	1790 nM
COc1ccc(N(C)C(=O)[C@H](Cc2ccccc2)NC(=O)CCSCCC(=O)N[C@@H](Cc2ccccc2)C(=O)N(C)c2ccc(OC)cc2)cc1 [Example 41]	23000 nM	100 nM
CN(C(=O)[C@H](Cc1cc(F)cc(F)c1)NC(=O)NS(=O)(=O)N[C@@H](Cc1cc(F)cc(F)c1)C(=O)N(C)c1ccc(OC(F)(F)F)cc1)c1ccc(OC(F)(F)F)cc1 [Example 189]	8200 nM	10 nM
CCCN(C(=O)[C@H](Cc1cc(F)cc(F)c1)NC(=O)NS(=O)(=O)N[C@@H](Cc1cc(F)cc(F)c1)C(=O)N(CCC)c1ccc2nccnc2c1)c1ccc2nccnc2c1 [Example 204]	≥ 33300 nM	15000 nM

SMILES	CC50 at 4 days [1]	EC50 [2]
COc1ccc(N(C)C(=O)[C@H](Cc2cc(F)cc(F)c2)NC(=O)Cn2c(=O)n(CC(=O)N[C@@H](Cc3cc(F)cc(F)c3)C(=O)N(C)c3ccc(OC)cc3)c3ccccc32)cc1 [Example 69]	11800 nM	20 nM
Cc1nc2c(F)c(N(C)C(=O)[C@H](Cc3cc(F)cc(F)c3)NC(=O)NS(=O)(=O)N[C@@H](Cc3cc(F)cc(F)c3)C(=O)N(C)c3ccc4sc(C)nc4c3F)ccc2s1 [Example 239]	≥ 100000 nM	860 nM
COc1ccc(N(C)C(=O)[C@H](Cc2cc(F)cc(F)c2)NC(=O)Cn2c(=O)n(CC(=O)N[C@@H](Cc3cc(F)cc(F)c3)C(=O)N(C)c3ccc(OC)cc3)c3c(Cl)cccc32)cc1 [Example 74]	11300 nM	30 nM
COc1ccc(N(C)C(=O)[C@H](Cc2ccccc2)NS(=O)(=O)NC(=O)N[C@@H](Cc2ccccc2)C(=O)N(C)c2ccc3scnc3c2)cc1 [Example 35]	99900 nM	30 nM
CN(C(=O)[C@H](Cc1cc(F)cc(F)c1)NC(=O)NS(=O)(=O)N[C@@H](Cc1cc(F)cc(F)c1)C(=O)N(C)c1ccc(C(C)(C)C)cc1)c1ccc(C(C)(C)C)cc1 [Example 168]	16200 nM	150 nM
COc1ccc(N(C)C(=O)[C@H](Cc2ccccc2)NC(=O)NS(=O)(=O)N[C@@H](Cc2ccccc2)C(=O)N(C)c2ccc(OC)cc2C)cc1 [Example 16]	≥ 33300 nM	1720 nM
COc1ccc(N(C)C(=O)[C@H](Cc2cc(F)cc(F)c2)NC(=O)NS(=O)(=O)N[C@@H](Cc2ccccc2)C(=O)N(C)c2ccc(OC)cc2)cc1 [Example 45]	38800 nM	10 nM
CCN(C(=O)[C@H](Cc1cc(F)cc(F)c1)NC(=O)NS(=O)(=O)N[C@@H](Cc1cc(F)cc(F)c1)C(=O)N(CC)c1ccc(OC(F)F)cc1)c1ccc(OC(F)F)cc1 [Example 150]	24600 nM	10 nM
COc1ccc(N(C)C(=O)[C@H](Cc2ccccc2)NC(=O)C[C@H](O)C(=O)N[C@@H](Cc2ccccc2)C(=O)N(C)c2ccc(OC)cc2)cc1 [Example 32]	34600 nM	3290 nM
CN(C(=O)[C@H](Cc1cc(F)cc(F)c1)NC(=O)c1cccc(S(=O)(=O)N[C@@H](Cc2cc(F)cc(F)c2)C(=O)N(C)c2ccc3scnc3c2)c1)c1ccc2scnc2c1 [Example 107]	≥ 100000 nM	300 nM
COc1ccc(N(C)C(=O)[C@H](Cc2ccccc2)NC(=O)NS(=O)(=O)N[C@@H](Cc2ccccc2)C(=O)N(C)c2cc(C)c(OC)cc2C)cc1 [Example 15]	35300 nM	4220 nM
CN(C(=O)[C@H](Cc1ccccc1)NC(=O)CS(=O)(=O)N[C@@H](Cc1ccccc1)C(=O)N(C)c1ccc2scnc2c1)c1ccc2scnc2c1 [Example 65]	34600 nM	320 nM
COc1ccc(N(C)C(=O)[C@H](Cc2cc(F)cc(F)c2)NC(=O)c2cc(Cl)c(Cl)cc2C(=O)N[C@@H](Cc2cc(F)cc(F)c2)C(=O)N(C)c2ccc(OC)cc2)cc1 [Example 255]	10000 nM	80 nM
COc1ccc(N(C)C(=O)[C@H](Cc2ccccc2)NC(=O)NS(=O)(=O)N[C@H](Cc2ccccc2)C(=O)N(C)c2ccc(OC)cc2)cc1 [Example 11]	≥ 33300 nM	470 nM
COc1ccc(N(C)C(=O)[C@H](Cc2cc(F)cc(F)c2)NC(=O)CN2c3ccccc3N(CC(=O)N[C@@H](Cc3cc(F)cc(F)c3)C(=O)N(C)c3ccc(OC)c(F)c3)S2(=O)=O)cc1F [Example 231]	≥ 100000 nM	40 nM
CN(C(=O)[C@H](Cc1ccccc1)Nc1ncc(-c2cnc(N[C@@H](Cc3ccccc3)C(=O)N(C)c3ccc4scnc4c3)nc2)cn1)c1ccc2scnc2c1 [Example 136]	≥ 100000 nM	340 nM
COc1ccc(N(C)C(=O)[C@H](Cc2ccccc2)NC(=O)N[C@@H](Cc2ccccc2)C(=O)N(C)c2ccc(OC)cc2)cc1 [Example 1]	23100 nM	2860 nM
CCc1ccc(N(C)C(=O)[C@H](Cc2cc(F)cc(F)c2)NC(=O)NS(=O)(=O)N[C@@H](Cc2cc(F)cc(F)c2)C(=O)N(C)c2ccc(CC)nc2)cn1 [Example 180]	80100 nM	30 nM
COc1ccc(N(C)C(=O)[C@H](Cc2ccccc2)NC(=O)c2cc(C(=O)N[C@@H](Cc3ccccc3)C(=O)N(C)c3ccc(OC)cc3)on2)cc1 [Example 116]	1500 nM	710 nM
